From PubChem BioAssay AID179 (DTP/NCI, 2004) come the findings set out here.

The structures appear in SMILES notation. Active and inactive are the calls of the source.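 Rule for the calls: active = compounds giving half or more protection of infected cells from virus-caused growth loss, again on retest; inactive = the rest.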

For orientation: EC50 means the concentration giving half of the maximal effect. Broadly, the IC50 is the concentration that inhibits the measured activity by half. Lower therefore signals higher potency.

The experiment has as its system CEM cells HIV-1 protection, formazan growth assay. The experiment is described as follows: NCI AIDS Antiviral Assay. As to conditions: for IC50: measured here: growth of uninfected CEM cells. A digest of the protocol:
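Five concentrations of each compound were applied to infected and uninfected human CEM cells. Protection from HIV-1 was judged from growth measured with a soluble formazan assay.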

`CCOC(=O)/C(C#N)=C/c1ccc(F)cc1`: the EC50 is above 162 µM and the IC50 was above 162 µM.

With `NC(=O)NCCCC(NC(=O)OCCCCCCn1ccc(=O)[nH]c1=O)C(=O)O` (configuration not stated), the EC50 was above 200 µM and the IC50 amounted to 32.4 µM.

Turning to `OCCSCc1cc2c(O)c(c1)Cc1cc(CSCCO)cc(c1O)Cc1cc(CSCCO)cc(c1O)Cc1cc(CSCCO)cc(c1O)C2`, the EC50 is above 24 µM and the IC50 is 5.01 µM.

For the molecule `Oc1ccc(-c2nc(=S)[nH][nH]2)cc1`, the EC50 was above 933 µM and the IC50 stood at 72.4 µM.

For the molecule `C=COCCC(C(=O)OCC)C(=O)OCC`, the EC50 is above 200 µM and the IC50 is above 200 µM.

Take `CCO/C=N/C1=C(C#N)SC2=N/C(=C\c3ccccc3)C(=O)N21`: the EC50 was above 200 µM and the IC50 stood at 77.6 µM.

Regarding `Cn1cccc1/C=N/N=C(/N)NO`, the result was inactive.

Turning to `C[C@H](N)C(O)C/C=C\CC(O)/C=C/C=C\C/C=C\C/C=C\C/C=C\CCCCCCC(O)[C@H](C)N` (some centres not stated), the outcome was inactive.

Turning to `COC(=O)c1cc(OC)c(OC)c(OC)c1-c1cc2c(cc1C=O)OCO2`, the EC50 was above 132 µM and the IC50 came out at 120 µM.

Take `CN1C=C(C(N)=O)C2CC(O)[C@@](NC(=O)CS(N)(=O)=O)(C(=O)O)C2C1` (some centres not stated): the EC50 is above 166 µM and the IC50 amounted to 3.72 µM.

`O=[N+]([O-])c1cc[n+]([O-])cc1`: the EC50 was above 1410 µM and the IC50 worked out at 8.91 µM.

For `CSc1ccc(NC(=S)NN(C)C)cc1`, the EC50 was above 200 µM and the IC50 came to 93.3 µM.

`CCCCCC=C(c1cc(Cl)c(OC)c(C(N)=O)c1)c1cc(Cl)c(OC)c(C(N)=O)c1`: the EC50 was 1.82 µM and the 50% inhibitory concentration (IC50) stood at 15.8 µM.

Regarding `O=C1CCC(N2C(=O)C3C4C=CC(CC4)C3C2=O)C(=O)N1` (configuration not stated), the EC50 is above 871 µM and the IC50 is above 871 µM.

`CCN(CC)[Se]c1ccccc1`: the result was inactive.

Take `CCCCCCCCCCCCCCCCP(=O)(O)OP(=O)(O)OCC1OC(n2cnc3c(N)ncnc32)C(O)C1O` (configuration not stated): the EC50 was above 100 µM and the IC50 is 19.5 µM.

Consider `CCOC(=O)Nc1cc2c(c(N)n1)N=C(c1ccc(OC)cc1)CN2`, for which the EC50 was above 11 µM and the IC50 was 0.224 µM.

On to `O=C1C(C2CCCCC2)=C2OCC3COC2(O3)c2ccccc21` (configuration not stated), for which the EC50 is above 74.1 µM and the IC50 is 30.2 µM.

Regarding `c1ccc(COc2cccc3ccc[n+](Cc4ccccc4)c23)cc1`, the EC50 was above 251 µM and the IC50 amounted to 4.68 µM.

As to `CCOC(=O)Nn1c(CC#N)nnc1Cc1ccccc1`, the EC50 is above 200 µM and the IC50 is above 200 µM.

As for `CCCNP(=S)(NCCC)NCCC`, the EC50 is above 200 µM and the IC50 was above 200 µM.

On to `CO[C@H]1C[C@](C)(O)Cc2cc3c(c(O)c21)C(=O)c1c(O)cc2c(c1C3=O)O[C@@H]1O[C@@]2(C)[C@H](O)[C@@H](N(C)C)[C@@H]1O`, for which the EC50 was above 6.92 µM and the IC50 came out at 0.0468 µM.

For `Clc1cccc2[nH]ncc12`, the EC50 was above 200 µM and the IC50 is above 100 µM.

For `CC(C)(C)OC(=O)NC12C3C4C1C1C2C3C41NC(=O)OC(C)(C)C` (configuration not stated), the EC50 was above 200 µM and the IC50 was 53.7 µM.

On to `N=c1ccn2c(n1)OC1C(O)C(CCl)OC12` (configuration not stated), for which the EC50 was above 200 µM and the IC50 amounted to 0.145 µM.

On to `Cn1nc(S(N)(=O)=O)s/c1=N/C(N)=S`, for which the EC50 was above 200 µM and the IC50 is above 200 µM.

On to `Cc1cc(=O)[nH]c(-n2[nH]c(C)c(CCO)c2=O)n1`, for which the EC50 is above 200 µM and the IC50 is above 200 µM.

Consider `CN1Cc2cc3c(cc2-c2ccccc21)OCO3`, for which the EC50 was 269 µM and the IC50 was 282 µM.

Regarding `CC(C)(C)OC(=O)NC(Cc1ccc(OCc2ccccc2)cn1)C(N)=O` (configuration not stated), the EC50 is above 200 µM and the IC50 was above 100 µM.

For `O=C1C(=O)c2ccccc2C(O)=C1C(C1=C(O)c2ccccc2C(=O)C1=O)c1ccc(Cl)cc1`, the EC50 is above 200 µM and the IC50 stood at 37.2 µM.

Regarding `Cc1ccc(-c2oc(C=Nc3ccccc3)c([N+](=O)[O-])c2-c2ccc(C)cc2)cc1`, the EC50 was above 200 µM and the IC50 is above 200 µM.

Regarding `C/C(=C\C(=O)c1ccc(Sc2ccccc2)cc1)c1ccc(Sc2ccccc2)cc1`, the EC50 is above 200 µM and the IC50 was found to be 102 µM.

With `CC(NC(=O)c1ccccc1)C(=O)N(Cc1ccccc1)Cc1ccccc1` (configuration not stated), the EC50 is above 97.7 µM and the IC50 is above 97.7 µM.

For the molecule `O=C(Cc1ccccc1)NN1C(=O)C(Cl)C1c1cccc([N+](=O)[O-])c1` (configuration not stated), the EC50 is above 14.5 µM and the IC50 was 8.71 µM.

On to `Nc1nc(NCCCO)cc(=O)[nH]1`, for which the EC50 is above 200 µM and the IC50 is above 200 µM.

Turning to `COC(=O)C(Cc1ccccc1)NP(=O)(O)OCC1OC(n2cc(I)c(=O)[nH]c2=O)CC1O` (configuration not stated), the EC50 was above 200 µM and the IC50 is above 200 µM.

Take `O=C(NC1CCCCC1)N1CCNC1=S`: the EC50 is above 200 µM and the IC50 is above 200 µM.

With `Cc1ccccc1N=C1SCC(=O)N1c1ccccc1C`, the EC50 was 141 µM and the IC50 is 191 µM.

Regarding `C=C1C(=O)O[C@@H]2C[C@@H](C)[C@@H]3C=CC(=O)[C@@]3(C)[C@@H](OC(=O)CCCC(=O)O[C@H]3[C@@H]4C(=C)C(=O)O[C@@H]4C[C@@H](C)[C@@H]4C=CC(=O)[C@]43C)[C@H]12`, the EC50 is above 5.75 µM and the IC50 came out at 0.407 µM.

For `Cc1cn(C2CC(N=[N+]=[N-])C(COC(=O)CCCCCCCCCCCc3ccccc3)O2)c(=O)[nH]c1=O` (configuration not stated), the EC50 was 0.0955 µM and the IC50 amounted to 89.1 µM.

As for `COc1cccc(/C=c2\[nH]c(=O)/c(=C/c3cccc(OC)c3OC)[nH]c2=O)c1OC`, the EC50 is above 9.12 µM and the IC50 was above 9.12 µM.

In the case of `O=C(CNC(=O)c1ccc(Cl)cc1)NO`, the EC50 was above 200 µM and the IC50 was above 200 µM.

In turn, `Nc1ccc(N=Nc2ccc(-c3ccc(O)cc3)cc2)c2ccc(S(=O)(=O)O)cc12` had an EC50 of 7.94 µM and an IC50 above 200 µM.

Take `CCNc1ccccc1S(=O)(=O)c1ccccc1[N+](=O)[O-]`: the EC50 is above 0.741 µM.

Consider `Cc1[nH]c(-c2ccccc2)c(O)c1C(=O)OC1CC(C)CCC1C(C)C` (configuration not stated), for which the EC50 is above 200 µM and the IC50 came out at 23.4 µM.

On to `CCCCCCCCCCCCCCCCN1CCCCCC1=O`, for which the EC50 was above 77.6 µM and the IC50 is above 77.6 µM.

For `N#CCCN(CCO)CCO`, the EC50 was above 200 µM and the IC50 was above 200 µM.

For `COc1cc2c(c(C)c1O)[C@H]1Cc3ccccc3[C@H]1O2`, the EC50 was above 7.41 µM and the IC50 is above 7.41 µM.

As to `O/N=C1\C(=C\c2ccc3c(c2)OCCO3)CCCC1C(NO)c1ccc2c(c1)OCCO2` (configuration not stated), the EC50 was above 16.6 µM and the IC50 is above 16.6 µM.

`NC1=Nc2ccccc2Sc2nc3ccccc3n21`: the EC50 is above 200 µM and the IC50 worked out at 8.71 µM.

On to `O=S1(=O)CCc2ccccc2C(Cl)C1` (configuration not stated), for which the EC50 is above 407 µM and the IC50 is above 407 µM.

For the molecule `Cc1c(C)c2ccc3occc(=O)c3c2oc1=O`, the EC50 was above 195 µM and the IC50 came to 95.5 µM.

Regarding `O=C(Nc1ccc(C(F)(F)F)cc1[N+](=O)[O-])C(=O)C(C(=O)c1ccc2ccccc2c1)C1OC(=O)c2ccccc21` (configuration not stated), the EC50 is above 64.6 µM and the half-inhibitory concentration (IC50) was determined as 33.9 µM.

On to `CCOC(=O)C(=Cc1cccc(Cl)c1)C(=O)OCC`, for which the EC50 was above 91.2 µM and the IC50 was determined as 6.17 µM.

Turning to `CC(=O)O[C@H]1[C@@H](OC2CCCC2(c2ccccc2)c2ccccc2)O[N+]([O-])=C[C@@H]1c1ccccc1` (some centres not stated), the EC50 is above 200 µM and the IC50 came to 3.09 µM.

On to `S=C1SSC(=S)SS1`, for which the EC50 was above 33.1 µM and the IC50 is above 33.1 µM.

Regarding `C(/C=C/c1ccccc1)=Nc1ccc(CCc2ccc(N=C/C=C/c3ccccc3)cc2)cc1`, the EC50 was above 1.23 µM and the IC50 is above 1.23 µM.

For `COCCOCCOCCC(=O)NC1CC2CCC1(C)C2(C)C` (configuration not stated), the EC50 was above 200 µM and the IC50 is above 200 µM.

With `COC(=O)C12CC3CC(CC(C(=O)O)(C3)C1)C2`, the EC50 was above 759 µM and the IC50 is above 759 µM.

As to `CN(C)P(CCPc1ccccc1)N(C)C` (configuration not stated), the EC50 was above 977 µM and the IC50 is above 977 µM.

Consider `Cc1ccc(-c2nc3ccccc3c(=O)n2NCC2(O)OCC(O)C(O)C2O)cc1` (configuration not stated), for which the result was inactive.

`CC12c3c4cccc3Oc3cc(N)cc(c31)Oc1cc(N)cc(c12)O4`: the EC50 is above 200 µM and the IC50 came out at 2.88 µM.

`CC(C)OP(=O)(OC(C)C)/C(F)=N/Nc1ccc([N+](=O)[O-])cc1`: the EC50 is above 38.9 µM and the IC50 is above 38.9 µM.

As for `COC(=O)CCc1ccc(CCC(=O)OC)cc1`, the EC50 is above 200 µM and the IC50 is above 200 µM.

As for `CCCCN(CCCC)CC(C(=O)Nc1ccc([N+](=O)[O-])cc1[N+](=O)[O-])/C(C)=N\NC(=O)C[N+](C)(C)C` (configuration not stated), the EC50 was above 46.8 µM and the IC50 is above 46.8 µM.

With `CC(C)CCCC(C)[C@H]1CC[C@H]2[C@H]3CC[C@H]4C[C@@H](CCC=C(c5cc(Cl)c(O)c(C(=O)O)c5)c5cc(Cl)c(O)c(C(=O)O)c5)CC[C@]4(C)[C@H]3CC[C@]12C` (some centres not stated), the EC50 was above 200 µM and the IC50 was above 200 µM.

With `O=C(c1ccc(F)cc1)c1cccc(C(=O)c2ccc(F)cc2)n1`, the EC50 is above 30.9 µM and the IC50 is above 30.9 µM.

Regarding `N#CCCN(CCC#N)c1ccc(/C=C2\N=C(c3ccccc3)N(NC(N)=S)C2=O)cc1`, the EC50 was above 200 µM and the IC50 is above 200 µM.

Regarding `CCOC(=O)c1[nH]cc(C)c1-c1cccn1-c1ccc(Cl)cc1[N+](=O)[O-]`, the EC50 was above 200 µM and the IC50 was determined as 30.9 µM.

In the case of `CC(C)(C)OC(=O)NC(Cc1ccc([N+](=O)[O-])cc1)C(=O)NC(CCCCNC(=O)OCc1ccccc1)C(=O)ON1C(=O)CCC1=O` (configuration not stated), the EC50 was above 200 µM and the IC50 was 56.2 µM.

Regarding `O=c1sc(Nc2ccc3ccccc3c2Cl)nc2ccccc12`, the EC50 is above 200 µM and the IC50 is above 200 µM.
